Source: US20250090699A1, “FAP TARGETING CYCLIC PEPTIDES AND CONJUGATES THEREOF” (Novartis AG, priority 2023, published 2025)
Structures can show the parent of a compound that is named as a salt. Starred links: 1 amine or outer side, 2 acyl side, 3 side chain; linkers in the order of their positions; H or OH if unused. Non-standard residues stand in square brackets, D forms with d. Residues, ends and D or L forms follow the SMILES beside them. Groups on a side chain read outwards from the residue. Primed or numbered codes have the meaning given here. *: point of attachment. COpipzaa = 4-(carboxymethyl)piperazine-1-carbonyl, O=C(O)CN1CCN(C(=O)*)CC1; X8 = O=C(O)CN1CCN(CC(=O)O)CCN(CC(=O)O)C(Cc2ccc(NC(=S)*)cc2)CN(CC(=O)O)CC1; F(4amPEG2NHDOTA-Ga)″ = Phe with 4-aminomethyl-PEG2-NH-DOTA, Ga complex; Phe(4-CH2NH2) = NCc1ccc(C[C@H](N)C(=O)O)cc1; Piperazinyl(4-CH2COOH) = O=C(O)CN1CCN(*)CC1; AEF = NCCOc1ccc(C[C@H](N)C(=O)O)cc1; NMeCha = CN[C@@H](CC1CCCCC1)C(=O)O; NMeCba = CN[C@@H](CC1CCC1)C(=O)O; NMeF = CN[C@@H](Cc1ccccc1)C(=O)O; Ahp(2) = CCCCC[C@H](N)C(=O)O; hSer = N[C@@H](CCO)C(=O)O; Nphe = O=C(O)CNCc1ccccc1; AEEA = NCCOCCOCC(=O)O; CO = O=C([*:1])[*:2]; Propyl = CCC*

What was measured:
mouse FAP [1] = target: T1, mouse FAP (Mus musculus, UniProt P97321); assay: Enzymatic FAP competition assay (Z-Gly-Pro-AMC fluorescence), mouse FAP; assay type: biochemical; details: read-out: m. FAP, Enz., IC50
T1 construct: biotinylated His, Avi tag, mouse FAP (26-761, FAP-M82Q5); His; Avi tag (biotinylated); purchased AcroBiosystems FAP-M82Q5
T1 sequence (P97321 26-761): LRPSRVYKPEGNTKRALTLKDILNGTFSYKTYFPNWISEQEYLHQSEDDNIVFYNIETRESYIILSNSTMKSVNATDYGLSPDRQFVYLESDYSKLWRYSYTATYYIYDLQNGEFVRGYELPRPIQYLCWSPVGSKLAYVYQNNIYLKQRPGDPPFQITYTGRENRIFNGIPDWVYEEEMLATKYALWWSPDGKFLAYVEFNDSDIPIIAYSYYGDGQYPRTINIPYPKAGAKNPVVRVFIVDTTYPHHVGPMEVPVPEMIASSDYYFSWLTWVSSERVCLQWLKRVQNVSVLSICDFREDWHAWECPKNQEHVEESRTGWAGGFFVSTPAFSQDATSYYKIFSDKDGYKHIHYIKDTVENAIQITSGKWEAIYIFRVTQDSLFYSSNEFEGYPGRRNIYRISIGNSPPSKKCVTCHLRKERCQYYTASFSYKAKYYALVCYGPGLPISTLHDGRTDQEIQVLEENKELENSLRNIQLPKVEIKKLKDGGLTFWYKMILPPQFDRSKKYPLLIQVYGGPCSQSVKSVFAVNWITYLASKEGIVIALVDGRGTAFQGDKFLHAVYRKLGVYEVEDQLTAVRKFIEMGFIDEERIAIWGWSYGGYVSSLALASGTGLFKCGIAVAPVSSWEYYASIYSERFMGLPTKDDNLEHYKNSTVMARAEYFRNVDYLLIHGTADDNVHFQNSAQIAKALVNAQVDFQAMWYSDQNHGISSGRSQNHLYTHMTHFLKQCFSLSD
Method in brief: (§1)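 IC50 values come from curve fitting of duplicate % inhibition data on AMC fluorescence (ex 380, em 460 nm) after 4 h at 22-24° C with 50 μM Z-Gly-Pro-AMC. Beforehand, peptides up to 1 μM (14 levels) sat 24 h with 0.01 nM human (26-760) or mouse (26-761) tagged FAP in phosphate buffer pH 7.5, NaCl, Tween20, 1% DMSO.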

mouse FAP [2] = target: T1, mouse FAP; assay: Surface plasmon resonance (SPR) for peptide affinity, mouse FAP; assay type: binding
Method in brief: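 KD values come from a 1:1 kinetic fit of single-cycle SPR data: 8 peptide concentrations, 25 °C, 30 μL/min, HEPES-buffered saline pH 7.6 with 2% DMSO. Targets were His/Avi-tagged human (26-760) or mouse (26-761) FAP, amine-coupled to CM5 or held on a CAPture chip.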

human FAP = target: T2, human FAP (Homo sapiens, UniProt Q12884); assay: Enzymatic FAP competition assay (Z-Gly-Pro-AMC fluorescence), human FAP; assay type: biochemical; details: read-out: h. FAP, Enz., IC50
T2 construct: the biotinylated His, Avi tag, human FAP (26-760, FAP-H82Q6); His; Avi tag (biotinylated); purchased AcroBiosystems FAP-H82Q6
T2 sequence (Q12884 26-760): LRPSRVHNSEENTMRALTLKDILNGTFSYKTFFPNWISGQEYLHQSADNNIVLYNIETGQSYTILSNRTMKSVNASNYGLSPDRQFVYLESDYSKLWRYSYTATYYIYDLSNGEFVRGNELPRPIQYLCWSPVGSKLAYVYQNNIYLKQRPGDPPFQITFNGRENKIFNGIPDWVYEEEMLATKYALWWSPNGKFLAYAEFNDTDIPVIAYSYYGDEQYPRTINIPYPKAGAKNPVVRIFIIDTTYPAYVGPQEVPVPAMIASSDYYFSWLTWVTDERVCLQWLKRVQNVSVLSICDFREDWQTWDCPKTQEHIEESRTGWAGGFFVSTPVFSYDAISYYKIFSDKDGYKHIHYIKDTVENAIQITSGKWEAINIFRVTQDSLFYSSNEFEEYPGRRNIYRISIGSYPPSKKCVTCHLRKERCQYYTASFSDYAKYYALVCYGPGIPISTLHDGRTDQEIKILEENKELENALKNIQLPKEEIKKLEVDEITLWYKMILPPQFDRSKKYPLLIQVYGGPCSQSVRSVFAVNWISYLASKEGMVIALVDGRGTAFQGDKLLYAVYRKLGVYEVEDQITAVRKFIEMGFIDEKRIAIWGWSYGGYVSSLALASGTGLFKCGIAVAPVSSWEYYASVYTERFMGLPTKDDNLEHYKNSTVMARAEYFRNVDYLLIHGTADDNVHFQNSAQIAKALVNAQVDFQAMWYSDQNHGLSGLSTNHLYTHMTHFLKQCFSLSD
Method in brief: as §1

Molecule `CCCCC[C@@H]1NC(=O)[C@H](Cc2ccc(O)cc2)NC(=O)[C@H](CC2CCCCC2)N(C)C(=O)CNC(=O)[C@H](CCCCN)NC(=O)[C@H]2CCCN2C(=O)[C@H](CC(=O)O)NC(=O)[C@H](Cc2ccc(O)cc2)NC(=O)CNC(=O)[C@H](Cc2c[nH]c3ccccc23)NC1=O` [Example A43, Lys-Gly-NMecHexA-Tyr-Ahp-Trp-Gly-Tyr-Asp-D-Pro, TFA salt] (cyclo([Ahp(2)]WGYD[dP]KG[NMeCha]Y)) has an IC50 (mouse FAP [1]) of 0.189 nM, a Kd (mouse FAP [2]) of 0.188 nM and an IC50 (human FAP) of 0.069 nM.
“Glu-Gly-NMe3PyA-F(4amPEG2NHDOTA-Lu)-hS(Pr)-W7N-Gly-K(COpipzaa)-Asp-D-Pro [Example C7]” was tested, and the IC50 (mouse FAP [1]) was 0.034 nM, the Kd (mouse FAP [2]) was < 0.068 nM and the IC50 (human FAP) was 0.014 nM.
For `CCCCC[C@@H]1NC(=O)[C@H](Cc2ccc(O)cc2)NC(=O)[C@H](CC2CCC2)N(C)C(=O)CNC(=O)CNC(=O)[C@H]2CCCN2C(=O)[C@H](CC(=O)O)NC(=O)[C@H](Cc2ccc(O)cc2)NC(=O)CNC(=O)[C@H](Cc2c[nH]c3ccccc23)NC1=O` [Example A62, Gly-Gly-NMecBuA-Tyr-Ahp-Trp-Gly-Tyr-Asp-D-Pro] (cyclo([Ahp(2)]WGYD[dP]GG[NMeCba]Y)), the IC50 (mouse FAP [1]) was 0.31 nM, the Kd (mouse FAP [2]) was 0.32 nM and the IC50 (human FAP) was 0.063 nM.
Molecule `CCCOCC[C@@H]1NC(=O)[C@H](Cc2ccc(CNC(=O)COCCOCCNC(=S)Nc3ccc(CC4CN(CC(=O)O)CCN(CC(=O)O)CCN(CC(=O)O)CCN4CC(=O)O)cc3)cc2)NC(=O)[C@H](Cc2ccccc2)N(C)C(=O)CNC(=O)CNC(=O)[C@H]2CCCN2C(=O)[C@H](CC(=O)O)NC(=O)[C@H](CCCCNC(=O)N2CCN(CC(=O)O)CC2)NC(=O)CNC(=O)[C@H](Cc2c[nH]c3ccccc23)NC1=O` (stereo partly drawn) [Example B35, Gly-Gly-NMePhe-F(4amPEG2NH-p-SCN-DOTA-hS(Pr)-Trp-Gly-K(COpipzaa)-Asp-D-Pro] (cyclo(D[dP]GG[NMeF][Phe(4-CH2NH2)]([AEEA-X8])[hSer](Propyl)WGK([CO-Piperazinyl(4-CH2COOH)]))) has an IC50 (mouse FAP [1]) of 0.055 nM, a Kd (mouse FAP [2]) of 0.059 nM and an IC50 (human FAP) of 0.021 nM.
In the case of `CCCCC[C@@H]1NC(=O)[C@H](Cc2ccc(OCCN)cc2)NC(=O)[C@H](Cc2ccccc2)N(C)C(=O)CNC(=O)[C@H](CCCCNC(=O)N2CCN(CC(=O)O)CC2)NC(=O)[C@H]2CCCN2C(=O)[C@H](CC(=O)O)NC(=O)[C@H](Cc2ccc(O)cc2)NC(=O)CNC(=O)[C@H](Cc2c[nH]c3ccccc23)NC1=O` [Example A46, K(COpipzaa)-Gly-NMePhe-F(4OEtNH2)-Ahp-Trp-Gly-Tyr-Asp-D-Pro, TFA salt] (cyclo([AEF][Ahp(2)]WGYD[dP]K([CO-Piperazinyl(4-CH2COOH)])G[NMeF])), the IC50 (mouse FAP [1]) is reported as 2.8 nM, the Kd (mouse FAP [2]) is reported as 2.2 nM and the IC50 (human FAP) is reported as 0.5 nM.
Work on `CCCCC[C@@H]1NC(=O)[C@H](Cc2ccc(O)cc2)NC(=O)[C@H](Cc2ccccc2)N(C)C(=O)CNC(=O)CNC(=O)[C@H]2CCCN2C(=O)[C@H](CC(=O)O)NC(=O)CN(Cc2ccccc2)C(=O)CNC(=O)[C@H](Cc2c[nH]c3ccccc23)NC1=O` [Example A74, Gly-Gly-NMePhe-Tyr-Ahp-Trp-Gly-NBnG-Asp-D-Pro] (cyclo(GG[NMeF]Y[Ahp(2)]WG[Nphe]D[dP])) yielded an IC50 (mouse FAP [1]) of 3.3 nM, a Kd (mouse FAP [2]) of 4.6 nM and an IC50 (human FAP) of 1.4 nM.
“Gly-Gly-NMePhe-F(4amPeG2NHDOTA-Ga)-Ahp-Trp-Gly-K(COpipzaa)-asp-D-Pro (cyclo(GG[NMeF][F(4amPEG2NHDOTA-Ga)″][Ahp(2)]WGK(COpipzaa)D[dP]); also: Ga in DOTA chelate) [Example C46]” was tested, and the IC50 (mouse FAP [1]) was 0.032 nM, the Kd (mouse FAP [2]) was < 0.016 nM and the IC50 (human FAP) was 0.012 nM.
